Measured values: US4455290A, “Inhibition of fibrin polymerization by a peptide isolated from fibrin Fragment D1” (Research Corporation, priority 1981, dated 1984)
Peptide text beside a SMILES is read from it.

Target: T1, Fragment D1 (Homo sapiens, UniProt P02671+P02675+P02679)
T1 construct: consisted of three polypeptide chains of different molecular weights: /α/, 12,000; /β, 43,000; and /γ, 39,000; made in house; host or cells: not recombinant: plasmin (plasminogen + streptokinase) digest of human fibrinogen in calcium, then gel filtration
T1 sequence (P02671 124-225 limits assumed): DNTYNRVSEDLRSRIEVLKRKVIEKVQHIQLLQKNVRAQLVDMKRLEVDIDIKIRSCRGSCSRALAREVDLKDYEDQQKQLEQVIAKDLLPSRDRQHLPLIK
T1 sequence (P02675 164-491 limits assumed): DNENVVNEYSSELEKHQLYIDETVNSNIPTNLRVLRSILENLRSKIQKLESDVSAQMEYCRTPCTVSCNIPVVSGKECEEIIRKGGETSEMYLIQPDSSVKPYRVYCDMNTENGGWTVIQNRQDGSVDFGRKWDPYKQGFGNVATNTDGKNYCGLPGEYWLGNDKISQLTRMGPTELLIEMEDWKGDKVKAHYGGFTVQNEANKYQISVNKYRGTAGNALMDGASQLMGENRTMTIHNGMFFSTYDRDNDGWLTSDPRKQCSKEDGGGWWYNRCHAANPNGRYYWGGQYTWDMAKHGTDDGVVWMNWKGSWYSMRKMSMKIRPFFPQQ
T1 sequence (P02679 89-437 isoform P02679-2 limits assumed): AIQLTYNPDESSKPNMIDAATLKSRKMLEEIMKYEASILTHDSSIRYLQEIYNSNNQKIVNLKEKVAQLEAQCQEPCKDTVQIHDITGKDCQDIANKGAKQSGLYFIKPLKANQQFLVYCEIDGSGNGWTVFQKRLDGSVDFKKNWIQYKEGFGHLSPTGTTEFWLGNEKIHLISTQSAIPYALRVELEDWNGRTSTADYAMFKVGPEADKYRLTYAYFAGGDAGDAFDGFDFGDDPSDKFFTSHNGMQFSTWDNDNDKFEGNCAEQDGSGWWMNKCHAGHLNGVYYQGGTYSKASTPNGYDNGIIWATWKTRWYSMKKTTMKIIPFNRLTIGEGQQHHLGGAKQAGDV
Assay: Equilibrium binding of 125-I D1 Peptide, Fragment D1
Source text: Acta 133, 376-379 (1979).

SMILES: CC[C@H](C)[C@H](NC(=O)[C@H](CCCCN)NC(=O)[C@H](CCSC)NC(=O)[C@@H](NC(=O)[C@@H](NC(=O)[C@H](CCCCN)NC(=O)[C@H](CCCCN)NC(=O)[C@H](CCSC)NC(=O)[C@H](CO)NC(=O)[C@H](Cc1ccc(O)cc1)NC(=O)[C@H](Cc1c[nH]c2ccccc12)NC(=O)[C@H](CCCNC(=N)N)NC(=O)[C@@H](N)[C@@H](C)O)[C@@H](C)O)[C@@H](C)O)C(=O)N[C@H](C(=O)N1CCC[C@H]1C(=O)N[C@@H](Cc1ccccc1)C(=O)N[C@@H](CC(N)=O)C(=O)N[C@@H](CCCNC(=N)N)C(=O)N[C@@H](CC(C)C)C(=O)N[C@H](C(=O)N[C@H](C(=O)NCC(=O)N[C@@H](CCC(=O)O)C(=O)NCC(=O)N[C@@H](CCC(N)=O)C(=O)N[C@@H](CCC(N)=O)C(=O)N[C@@H](Cc1c[nH]cn1)C(=O)N[C@@H](Cc1c[nH]cn1)C(=O)N[C@@H](CC(C)C)C(=O)NCC(=O)NCC(=O)N[C@@H](C)C(=O)N[C@@H](CCCCN)C(=O)N[C@@H](CCC(N)=O)C(=O)N[C@@H](C)C(=O)NCC(=O)N[C@@H](CC(=O)O)C(=O)N[C@H](C(=O)O)C(C)C)[C@@H](C)CC)[C@@H](C)O)[C@@H](C)CC [D1 Peptide] (H-TRWYSMKKTTMKIIPFNRLTIGEGQQHHLGGAKQAGDV-OH)
- binding to Fragment D1: no measurable binding
